Drawing on BindingDB's records for doi:10.1021/jm800555h (The Scripps Research Institute, 2008), this text covers Ki for six molecules.

As usually defined, the Ki is the dissociation constant of the complex between target and ligand, obtained from inhibition or displacement. Low values mean higher affinity, high ones lower affinity.

Sequence of Bifunctional purine biosynthesis protein ATIC (P31939 whole entry): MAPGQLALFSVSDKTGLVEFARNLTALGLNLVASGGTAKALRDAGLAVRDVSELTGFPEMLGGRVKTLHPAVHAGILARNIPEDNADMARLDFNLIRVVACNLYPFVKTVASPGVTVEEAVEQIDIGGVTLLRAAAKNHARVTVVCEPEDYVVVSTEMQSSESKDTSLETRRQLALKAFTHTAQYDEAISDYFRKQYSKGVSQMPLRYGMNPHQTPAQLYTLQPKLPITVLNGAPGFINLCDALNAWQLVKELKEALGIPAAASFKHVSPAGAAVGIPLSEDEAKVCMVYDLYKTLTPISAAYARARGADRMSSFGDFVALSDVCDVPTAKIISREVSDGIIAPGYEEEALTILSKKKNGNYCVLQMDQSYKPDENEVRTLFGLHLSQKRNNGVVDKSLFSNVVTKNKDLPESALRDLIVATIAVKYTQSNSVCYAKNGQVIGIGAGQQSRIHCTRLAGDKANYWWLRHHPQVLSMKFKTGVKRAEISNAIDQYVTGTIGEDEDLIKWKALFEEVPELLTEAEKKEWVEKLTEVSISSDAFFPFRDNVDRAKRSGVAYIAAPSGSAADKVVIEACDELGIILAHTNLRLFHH

The target of the first assay is Bifunctional purine biosynthesis protein ATIC (Homo sapiens, UniProt P31939). As to the kind of experiment: AICAR Tfase Inhibition Assay. The settings on record: pH 7.4; 26 °C. An excerpt:
Recombinant human AICAR Tfase was used in the inhibition assay. The reaction was monitored at 298 nm by measuring the increase in absorbance corresponding to the formation of THF. The THF was generated in the transfer reaction of the formyl group from cofactor to AICAR to produce 5-formyl-AICAR. Double reciprocal plots were used to determine the Ki values.
`Nc1nc(N)c(CCC[C@@H](O)c2ccc(C(=O)NC(CCC(=O)O)C(=O)O)cc2)c(=O)[nH]1` (stereo partly drawn) [2-({4-[(1R)-4-(2,4-diamino-6-oxo-1,6-dihydropyrimidin-5-yl)-1-hydroxybutyl]phenyl}formamido)pentanedioic acid]: the Ki was greater than 100 µM.

`CS[C@@H](CCCc1c(N)nc(N)[nH]c1=O)c1ccc(C(=O)NC(CCC(=O)O)C(=O)O)cc1` (some centres not stated) [10S (7)] registered an inhibitory constant (Ki) greater than 100 µM.

As to `CO[C@@H](CCCc1c(N)nc(N)[nH]c1=O)c1ccc(C(=O)NC(CCC(=O)O)C(=O)O)cc1` (stereo partly drawn) [2-({4-[(1S)-4-(2,4-diamino-6-oxo-1,6-dihydropyrimidin-5-yl)-1-methoxybutyl]phenyl}formamido)pentanedioic acid], the inhibition constant Ki was greater than 100 µM.

Take `CO[C@H](CCCc1c(N)nc(N)[nH]c1=O)c1ccc(C(=O)NC(CCC(=O)O)C(=O)O)cc1` (stereo partly drawn) [2-({4-[(1R)-4-(2,4-diamino-6-oxo-1,6-dihydropyrimidin-5-yl)-1-methoxybutyl]phenyl}formamido)pentanedioic acid]: the inhibition constant Ki was greater than 100 µM.

The molecule `CS[C@H](CCCc1c(N)nc(N)[nH]c1=O)c1ccc(C(=O)NC(CCC(=O)O)C(=O)O)cc1` (some centres not stated) [10R (8)] returned an inhibition constant Ki greater than 100 µM.

With `Nc1nc(N)c(CCC[C@H](O)c2ccc(C(=O)NC(CCC(=O)O)C(=O)O)cc2)c(=O)[nH]1` (stereo partly drawn) [2-({4-[(1S)-4-(2,4-diamino-6-oxo-1,6-dihydropyrimidin-5-yl)-1-hydroxybutyl]phenyl}formamido)pentanedioic acid], the Ki is greater than 100 µM.

For the next assay, the target named is T1, Trifunctional purine biosynthetic protein adenosine-3 (Homo sapiens, UniProt P22102).
T1 sequence (P22102 whole entry): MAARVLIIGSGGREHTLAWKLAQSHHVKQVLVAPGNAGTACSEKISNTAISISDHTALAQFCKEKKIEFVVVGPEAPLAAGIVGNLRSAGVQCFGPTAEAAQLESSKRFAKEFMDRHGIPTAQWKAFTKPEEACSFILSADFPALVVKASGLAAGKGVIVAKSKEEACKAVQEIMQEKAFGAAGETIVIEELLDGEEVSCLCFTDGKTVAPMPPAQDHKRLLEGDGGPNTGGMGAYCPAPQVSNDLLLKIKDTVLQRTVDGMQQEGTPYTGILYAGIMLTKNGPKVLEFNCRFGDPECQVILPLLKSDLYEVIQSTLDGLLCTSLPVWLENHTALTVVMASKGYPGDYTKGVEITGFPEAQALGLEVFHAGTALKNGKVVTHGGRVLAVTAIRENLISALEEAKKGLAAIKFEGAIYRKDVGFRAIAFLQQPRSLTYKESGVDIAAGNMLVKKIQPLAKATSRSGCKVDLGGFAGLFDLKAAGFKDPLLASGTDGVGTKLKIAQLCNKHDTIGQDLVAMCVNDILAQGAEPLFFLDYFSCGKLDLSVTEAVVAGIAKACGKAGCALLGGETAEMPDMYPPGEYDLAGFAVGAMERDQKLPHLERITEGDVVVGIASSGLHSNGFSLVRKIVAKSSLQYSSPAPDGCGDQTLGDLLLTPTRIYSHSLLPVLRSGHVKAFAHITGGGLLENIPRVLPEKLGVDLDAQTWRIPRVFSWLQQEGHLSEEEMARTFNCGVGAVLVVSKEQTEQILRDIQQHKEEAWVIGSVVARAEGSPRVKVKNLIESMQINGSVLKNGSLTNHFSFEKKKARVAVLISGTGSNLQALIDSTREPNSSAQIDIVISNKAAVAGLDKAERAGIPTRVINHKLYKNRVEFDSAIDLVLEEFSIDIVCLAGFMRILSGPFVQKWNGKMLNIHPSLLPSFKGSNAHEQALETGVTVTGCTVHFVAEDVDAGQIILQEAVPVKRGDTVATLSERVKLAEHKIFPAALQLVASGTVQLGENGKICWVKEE
As to the kind of experiment: GAR Tfase Activity Assay. The settings on record: pH 7.5; 26 °C.
`Nc1nc(N)c(CCC[C@@H](O)c2ccc(C(=O)NC(CCC(=O)O)C(=O)O)cc2)c(=O)[nH]1` (stereo partly drawn) [2-({4-[(1R)-4-(2,4-diamino-6-oxo-1,6-dihydropyrimidin-5-yl)-1-hydroxybutyl]phenyl}formamido)pentanedioic acid]: the inhibition constant Ki came out at 1.1 µM.
